{"source": "patent US11608320B2", "about": "“Oxazolidinone hydroxamic acid derivatives” (KUWAIT UNIVERSITY, priority 2020, dated 2023)", "key": {"[1]": {"target": "T1, recombinant human 5-LO enzyme (Homo sapiens, UniProt P09917)", "T1 sequence (P09917 1-674)": "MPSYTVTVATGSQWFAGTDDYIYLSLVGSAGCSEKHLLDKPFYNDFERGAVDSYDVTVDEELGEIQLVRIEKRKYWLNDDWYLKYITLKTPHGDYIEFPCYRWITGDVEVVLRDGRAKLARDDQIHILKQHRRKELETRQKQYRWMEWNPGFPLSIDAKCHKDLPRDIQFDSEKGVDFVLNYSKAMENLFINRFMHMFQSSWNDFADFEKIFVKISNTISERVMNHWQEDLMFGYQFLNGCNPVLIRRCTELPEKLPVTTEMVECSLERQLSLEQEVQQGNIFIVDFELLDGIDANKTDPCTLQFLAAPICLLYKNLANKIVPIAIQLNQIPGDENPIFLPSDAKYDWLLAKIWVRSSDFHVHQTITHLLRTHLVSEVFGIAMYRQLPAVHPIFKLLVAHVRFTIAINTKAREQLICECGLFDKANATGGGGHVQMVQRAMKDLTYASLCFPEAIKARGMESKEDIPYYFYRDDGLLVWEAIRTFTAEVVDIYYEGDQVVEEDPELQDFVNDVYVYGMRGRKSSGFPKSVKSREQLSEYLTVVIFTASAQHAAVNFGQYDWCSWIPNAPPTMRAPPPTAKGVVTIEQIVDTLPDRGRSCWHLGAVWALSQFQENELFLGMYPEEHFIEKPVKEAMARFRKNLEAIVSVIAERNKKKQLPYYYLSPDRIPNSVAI", "test": "Direct 5-LO inhibitory activity in a cell-free assay (H2DCF-DA fluorescence)", "type": "biochemical", "details": "cell-free, recombinant human 5-LO; read-out: Inhibitory Activity IC50, Human recomb. 5-LO", "experimental": "H2DCF-DA (60 μM) was first pre-cleaved by incubating with 450 mU/ml recombinant human 5-LO enzyme in Tris buffer (containing 50 mM Tris, pH=7.5, 2 mM EDTA, 2 mM CaCl2), 1 mM dithiothreitol (DTT) and 0.6 U/ml glutathione peroxidase) for 10 min at room temperature. […] After 10 min incubation at room temperature, the reaction was started with the addition of 50 μl of the substrate solution (Tris buffer containing 20 μM ATP and 20 μM arachidonic acid). After a further 20 min, the reaction was terminated with 100 μl acetonitrile. Fluorescence was read at 500 nm excitation and 520 emission, with Novostar® microplate reader (BMG Labtech, Offenburg, Germany). Appropriate controls, including 100 μM nordihydroguaiaretic acid (NDGA), were included to isolate only the 5-LO-attributable, NDGA-inhibitable RFU values."}, "[2]": {"tested_on": "LTC4 release from IgE/antigen-activated mouse mast cells (BMMC)", "test": "Inhibition of LTC4 release in allergen/IgE-activated bone marrow-derived mouse mast cells", "type": "cell-based", "details": "BMMC, anti-DNP IgE sensitized, DNP-BSA 30 ng/ml, 30 min", "text": "(§1) Inhibition of LTC4 release and degranulation in allergen/IgE-activated bone marrow-derived mouse mast cells (BMMC): Bone marrow-derived mast cells (BMMC) were generated from pathogen-free 5-7 week old male Balb/c mice according to the method of Davis et al., [2004] (Davis, B. J., et al., (2004), Journal of Immunology, 173: 6914-6920). Essentially, bone marrow cells were obtained by flushing of the femoral bone marrow and cultured in RPMI 1640 medium supplemented with 10% FBS, 100 U/ml penicillin, and 100 μg/ml streptomycin, 25 mM HEPES, 1.0 mM sodium pyruvate, 0.1 mM nonessential amino acids, 0.0035% 2-mercaptoethanol, and 30 ng/ml mouse recombinant IL-3, with culture medium replaced every two days. Cells were used after 4-8 weeks of culture, by which time at least 97% of the cells would have differentiated into mast cells.\n(§2) The generated BMMCs were seeded at 5×10^4 cells/well in a 96-well flat-bottom culture plate and passively sensitized overnight with 0.5 μg/ml anti-DNP monoclonal IgE antibody (clone SPE-7, Sigma-Aldrich, St. Louis, Mo., USA). The cells were then washed twice to remove any unbound antibody and subsequently re-suspended in reaction buffer (135 mM NaCl, 5 mM KCl, 1.8 mM CaCl2), 1 mM MgCl2, 5.6 mM glucose, 0.05% BSA and 20 mM HEPES, pH 7.4). They were then pre-incubated with the test compounds (0.01-30 μM) or the solvent (0.05% DMSO) for 15 min before being stimulated with the specific antigen, DNP-BSA (30 ng/ml). After 30 min incubation at 37° C., the amount of LTC4 released into the supernatant (as index of 5-LO activity) was determined by ELISA as described below.\nAssay of released leukotrienes/β-hexoseaminidase enzyme: Appropriately diluted supernatants were assayed for the released LTs (LTB4 and LTC4), by the enzyme immunoassay (EIA) method using assay kits supplied by R&D Systems (Minneapolis, Minn., USA) and following the manufacturer's instructions."}, "[3]": {"tested_on": "degranulation of bone marrow-derived mouse mast cells", "test": "Inhibition of degranulation (β-hexoseaminidase release) in allergen/IgE-activated BMMC", "type": "cell-based", "details": "anti-DNP IgE sensitized, DNP-BSA 30 ng/ml, 30 min", "text": "as §1\nas §2, with “They were then pre-incubated with the test compounds (0.01-30 μM) or the solvent (0.05% DMSO) for 15 min before being stimulated with the specific antigen, DNP-BSA (30 ng/ml).” left out\nThe concurrently-released granular enzyme, β-hexoseaminidase (as index of degranulation) was determined as described below.\nThe beta-hexoseaminidase released into the supernatant by the degranulating BMMCs was determined colorimetrically using p-nitrophenyl-N-acetyl-β-D-glucosaminide as substrate. […] The absorbance of the colored product (p-nitrophenol) was then read at 405 nm in a microplate reader. Results were expressed as percentage of the total cell content (determined in cells lysed with 0.1% triton-x-100)."}, "[4]": {"tested_on": "isolated human monocytes", "test": "In vitro toxicity testing (MTT viability)", "type": "cell-based", "details": "concentrations up to 50 μM, 3 h or 24 h, n=3", "experimental": "In Vitro Toxicity Testing: Adherent human monocytes, prepared as described above, were used. The cells were cultured with various concentrations of the test compounds or vehicle, or with 0.05% Triton-X as positive control for 3 h or 24 h. At the end of the culture, cell viability was determined using the MTT (3-(4,5 dimethylthiazol-2-yl)-2,5-diphenyltetrazolium bromide) assay method. Briefly, 15 μl of the MTT solution (5 mg/ml) was added to each well, and incubated at 37° C. for 4 h. After removing the supernatant, 200 μl of dimethylsulfoxide (DMSO) was added to dissolve the crystals. Absorbance at 570 nm was then measured in a microplate reader. Viability was expressed as percentage of the vehicle-treated cells."}, "[5]": {"tested_on": "zymosan-induced peritonitis", "test": "Zymosan-induced peritoneal inflammation in mice", "type": "in vivo, mouse", "details": "30 min before zymosan i.p., peritoneal exudate at 2 h", "text": "Inhibition of zymosan-induced peritoneal inflammation in mice: Female Balb/c mice, 6-8 weeks old, obtained from the Animal Resources Center of the Health Sciences Center, Kuwait University, were used. They were maintained under temperature-controlled conditions with an artificial 12-h light/dark cycle and allowed standard chow and water ad libitum. The study protocol was approved by the “Health Sciences Center Animal Welfare Committee” and complied with the “Guidelines for the Care and Use of Laboratory Animals” of the Health Sciences Centre, Kuwait University. The zymosan-induced peritonitis model-a recognized LT-mediated inflammatory reaction, described particularly in Hanke et al., 2013 ([…]., et al. (2013). Journal of medicinal chemistry, 56(22), 9031-9044) was used. […] After 30 min, all groups were injected intraperitonally with 0.2 ml of activated zymosan (2 mg/ml) except the control group that received 0.2 ml PBS. After 2 h, all animals were killed and the peritoneal exudate was collected by washing the cavity with 3 ml of heparinized (10 IU/ml) PBS."}}, "data": [{"smiles": "CCCCCCC(=O)N(O)C[C@H]1CN(c2ccc(N3CCOCC3)c(F)c2)C(=O)O1", "note": "[PH-249, (R)—N-((3-(3-fluoro-4-morpholinophenyl)-2-oxooxazolidin-5-yl)methyl)-N-hydroxyheptanamide]", "values": [{"measurement": "IC50", "setting": "[1]", "result": 1900, "unit": "nM"}, {"measurement": "Inhibition of generation of LTC4 from IgE/allergen-activated mast cells (FIG. 2A)", "setting": "[2]", "result": "equally effective in inhibiting the generation of LTC4"}, {"measurement": "Inhibition of degranulation (release of granular β-hexoseaminidase) (FIG. 2B)", "setting": "[3]", "result": "able to inhibit degranulation"}, {"measurement": "Effect on viability of isolated human monocytes (MTT)", "setting": "[4]", "result": "no significant effect on cell viability"}, {"measurement": "Net Exudate Vol", "setting": "[5]; 10 mg/kg s.c.", "result": "0.16 ± 0.08", "unit": "mL"}, {"measurement": "Total Cell No", "setting": "[5]; 10 mg/kg s.c.", "result": "39.7 ± 6.6 ×10^6"}, {"measurement": "Total LTC4", "setting": "[5]; 10 mg/kg s.c.", "result": "107.2 ± 51.6", "unit": "ng"}, {"measurement": "Net Exudate Vol", "setting": "[5]; 30 mg/kg s.c.", "result": "0.06 ± 0.01", "unit": "mL"}, {"measurement": "Total Cell No", "setting": "[5]; 30 mg/kg s.c.", "result": "17.8 ± 2.2 ×10^6"}, {"measurement": "Total LTC4", "setting": "[5]; 30 mg/kg s.c.", "result": "102.8 ± 20.9", "unit": "ng"}, {"measurement": "melting point", "result": "123 to 125", "unit": "°C"}]}]}
